In PubChem BioAssay (NCI):
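Cells were grown in 96-well plates and exposed to each compound for 48 hours at five concentrations; endpoints were interpolated linearly between bracketing concentrations, or set to the highest concentration if not reached. GI50 marks 50% less growth. At the TGI there is no net growth.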

Assays:
Assay in all cases: NCI anticancer screen, dose series, 48 h
LOX IMVI melanoma = system: LOX IMVI melanoma
CCRF-CEM leukemia = system: CCRF-CEM leukemia
PC-3 prostate = system: PC-3 prostate
HCT-116 colon = system: HCT-116 colon
MDA-N = system: MDA-N
COLO 205 colon = system: COLO 205 colon
U251 CNS = system: U251 CNS
UACC-257 melanoma = system: UACC-257 melanoma
OVCAR-3 ovarian = system: OVCAR-3 ovarian
K-562 leukemia = system: K-562 leukemia

| SMILES | TGI (LOX IMVI melanoma) | TGI (CCRF-CEM leukemia) | TGI (PC-3 prostate) | TGI (HCT-116 colon) | TGI (MDA-N) | TGI (COLO 205 colon) | TGI (U251 CNS) | TGI (UACC-257 melanoma) | TGI (OVCAR-3 ovarian) | TGI (K-562 leukemia) | GI50 (MDA-N) | GI50 (UACC-257 melanoma) | GI50 (OVCAR-3 ovarian) | GI50 (LOX IMVI melanoma) | GI50 (CCRF-CEM leukemia) | GI50 (K-562 leukemia) |
| --- | --- | --- | --- | --- | --- | --- | --- | --- | --- | --- | --- | --- | --- | --- | --- | --- |
| NC(CC(O)(c1ccccc1)c1ccccc1)c1ccccc1S (stereo not drawn) | 30.5 µM | 40.7 µM | 24.2 µM | 26.2 µM | 30.4 µM | 32 µM | 28.3 µM | 43.8 µM | 29.5 µM | 37.2 µM |  |  |  |  |  |  |
| CC(=O)OC(C)(C)CCC(=O)[C@](C)(O)[C@H]1[C@H](O)C[C@@]2(C)[C@@H]3CC=C4C(C)=C(OC5OC(CO)C(O)C(O)C5O)C(=O)C[C@@H]4[C@]3(C)C(=O)C[C@]12C (stereo partly drawn) | > 100 µM | > 100 µM | > 100 µM | > 100 µM | > 100 µM | > 100 µM | > 100 µM | > 100 µM | > 100 µM | > 100 µM |  |  |  |  |  |  |
| O=C(O)CCc1ccc2c(c1)CC1(Cc3ccccc3C1)C2 | > 100 µM | > 100 µM | > 100 µM | > 100 µM | > 100 µM | > 100 µM | > 100 µM | > 100 µM | > 100 µM |  |  |  |  |  |  |  |
| CN(C)c1ccc(/C=C/C(=O)O)cc1 | > 100 µM | > 100 µM |  | > 100 µM |  | > 100 µM |  | > 100 µM | > 100 µM | > 100 µM |  |  |  |  |  |  |
| CN(Cc1cnc2nc(N)nc(N)c2n1)c1ccc(C(=O)NC(CCC(=O)NC(CC(P(=O)(O)O)P(=O)(O)O)C(=O)O)C(=O)O)cc1 (stereo not drawn) | > 100 µM |  | > 100 µM | > 100 µM | > 100 µM | > 100 µM | > 100 µM | > 100 µM | > 100 µM |  |  |  |  |  |  |  |
| CC12ON(P(=O)(c3ccccc3)c3ccccc3)C(C)(c3ccccc31)c1ccccc12 | > 100 µM | > 100 µM | > 100 µM | > 100 µM | > 100 µM | > 100 µM | > 100 µM | > 100 µM | > 100 µM | > 100 µM |  |  |  |  |  |  |
| O=[N+]([O-])c1ccc(O)c(/C=N/c2nc(-c3ccccc3)cs2)c1 | 38.7 µM | > 100 µM | > 100 µM | 80.9 µM | > 83.6 µM | 56.7 µM | > 100 µM | > 100 µM | > 100 µM | 41.9 µM |  |  |  |  |  |  |
| CC(=O)OC(C)c1cc2c(s1)C(=O)c1c(C(C)OC(C)=O)csc1C2=O (stereo not drawn) |  | 4.44 µM | 6.6 µM | 10.2 µM | 0.382 µM | 3.5 µM | 2.7 µM | 1.89 µM | 0.724 µM | 3.26 µM | 0.214 µM | 0.631 µM | 0.278 µM |  |  |  |
| CC1=CCC[C@H]2[C@](C)(CC3=CC(=O)C(Sc4ccccc4)=CC3=O)[C@@H](C)CC[C@]12C | 26.4 µM | 17.4 µM | 82 µM | 30.3 µM | 32.4 µM | 29.5 µM | 40.1 µM | 32.5 µM | 31.4 µM | 41.2 µM |  |  |  | 13.6 µM | 3.89 µM | 19.5 µM |
| COc1cc2c(cc1OC)[C@@](C)(C(O)C(O)C(C)(C)O)NCC2 (stereo partly drawn) | > 100 µM | > 100 µM | > 100 µM | > 100 µM | > 100 µM | > 100 µM | > 100 µM | > 100 µM | > 100 µM | > 100 µM |  |  |  |  |  |  |
| COc1ccc(C2SCC(=O)N2NC(=O)C(C)Oc2ccccc2C)cc1 (stereo not drawn) | > 100 µM | > 100 µM | > 100 µM | > 100 µM | > 100 µM | > 100 µM | > 100 µM | > 100 µM | > 100 µM | > 100 µM |  |  |  |  |  |  |
| COc1c(C)c(C/C=C(\C)CC/C=C(\C)CC/C=C(\C)CCC=C(C)C)c(OC)c2ccccc12 | > 100 µM | 64.1 µM | > 100 µM | > 100 µM | > 100 µM | > 100 µM | > 100 µM | > 100 µM | > 100 µM | > 100 µM |  |  |  |  |  |  |
| COC(=O)c1ccccc1C1=C([N+](=O)[O-])C(c2ccccc2)C(C#N)=C(N)O1 (stereo not drawn) | > 100 µM | > 100 µM | > 100 µM | > 100 µM | > 100 µM | > 100 µM | > 100 µM | > 100 µM | 88.9 µM | > 100 µM |  |  |  |  |  |  |
| CCOC(=O)C(=CN1CCNC1=S)C(=O)OCC | > 100 µM | > 100 µM | > 100 µM | > 100 µM | > 100 µM | > 100 µM | > 100 µM | > 100 µM | > 32.4 µM | > 100 µM |  |  |  |  |  |  |
| COc1cc(CCN(C)C)cc(OC)c1OC | > 100 µM | > 100 µM | > 100 µM | > 100 µM | > 100 µM | > 100 µM | > 100 µM | > 100 µM | > 100 µM | > 100 µM |  |  |  |  |  |  |
| Cc1cc2oc(C)c(S(=O)(=O)NC(=O)Nc3ccc(Cl)cc3)c(=O)c2c(=O)o1 | > 100 µM | > 100 µM | > 100 µM | > 100 µM | > 100 µM | > 100 µM | > 100 µM | > 100 µM | > 100 µM | > 100 µM |  |  |  |  |  |  |
| CC12CCC(C(=Nc3cc(C(F)(F)F)cc(C(F)(F)F)c3)C1=O)C2(C)C (stereo not drawn) | 29.9 µM | > 100 µM | > 100 µM | 99 µM |  | 34.1 µM | > 100 µM | > 100 µM | > 100 µM | > 100 µM |  |  |  |  |  |  |
| CCOC(=O)c1[nH]c2cccc3c2c1CC[C@H](NC(=O)C(F)(F)F)C3=O | > 100 µM | > 100 µM | > 100 µM | > 100 µM | > 100 µM | > 100 µM | 72.7 µM | > 100 µM | > 100 µM | > 100 µM |  |  |  |  |  |  |
| CN[C@@H](C)[C@@H](O)c1ccccc1 | > 100 µM | > 10 µM | > 100 µM | > 100 µM | > 100 µM | > 100 µM | > 100 µM | > 100 µM | > 10 µM | > 100 µM |  |  |  |  |  |  |
| CCCc1nnc2sc(COc3cc(Cl)c(OCc4nn5c(CCC)nnc5s4)cc3Cl)nn12 | > 100 µM | 46.8 µM | > 100 µM | > 100 µM | > 100 µM | > 100 µM | > 100 µM | > 100 µM | 78.5 µM | > 100 µM |  |  |  |  |  |  |
